Key:
[1] = In vitro cytotoxicity assay (MTT cell viability) in HepG2 cells; format: cell-based, human; conditions: human
In short: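 HepG2 seeded overnight, then 7-day compound exposure (30 μM–1.0 nM, half-log steps), 37 °C. MTT 3-4 h, DMSO solubilization, A492. % of vehicle → CC50, 4-PL fit.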

[2] = system: HBV replication in HepAD38 cells; test: Anti-HBV replication assay in HepAD38 cells (QPCR of extracellular HBV DNA); format: cell-based, HBV (genotype D, serotype ayw); conditions: Hepatitis B virus, 168 h, 7 days incubation, extracellular HBV DNA by QPCR, read-out: Anti-HBV EC50
In short: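 Compounds (1 log10 serial dilutions, […]) were left 7 days on tetracycline-free HepAD38 cultures, a HepG2 line with tet-controlled HBV genotype D. EC50 came from 4-parameter regression of percent inhibition versus vehicle, using supernatant HBV DNA copies/mL measured by QPCR.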

| Structure (SMILES) | CC50 at 7 days [1] | EC50 [2] |
| --- | --- | --- |
| Cc1cc(NC(=O)c2cc(C(=O)C(=O)NC3(C)CC(F)(F)C3)n3c2CCCC3)ccc1F [Example 404, 3-(2-((3,3-difluoro-1-methylcyclobutyl)amino)-2-oxoacetyl)-N-(4-fluoro-3-methylphenyl)-5,6,7,8-tetrahydroindolizine-1-carboxamide] | > 30 µM | 0.05 to 0.499 µM |
| Cc1cc(NC(=O)c2cc(C(=O)C(=O)NC3(C)COC3)n3c2CCCC3)ccc1F [Example 405, N-(4-fluoro-3-metthylphenyl)-3-(2-((3-methyloxetan-3-yl)amino)-2-oxoacetyl)-5,6,7,8-tetrahydroindolizine-1-carboxamide] | > 30 µM | 0.05 to 0.499 µM |
| Cc1cc(NC(=O)c2c(C)c(C(=O)C(=O)NC3(CO)CCOC3)n(C)c2C)ccc1F (stereo not drawn) [Example 13, N-(4-fluoro-3-methylphenyl)-5-(2-((3-(hydroxymethyl)tetrahydrofuran-3-yl)amino)-2-oxoacetyl)-1,2,4-trimethyl-1H-pyrrole-3-carboxamide] | > 30 µM | < 0.05 µM |
| COc1c(C(=O)Nc2ccc(F)c(F)c2)c(C)n(C)c1C(=O)C(=O)NC1(C(F)(F)F)CCC1 [Example 378, N-(3,4-difluorophenyl)-4-methoxy-1,2-dimethyl-5-(2-oxo-2-((1-(trifluoromethyl)cyclobutyl)amino)acetyl)-1H-pyrrole-3-carboxamide] | > 30 µM | < 0.05 µM |
| Cc1cc(NC(=O)c2c(C)c(C(=O)C(=O)N[C@H]3CC[C@H](O)CC3)n(C)c2C)ccc1F [Example 246, N-(4-fluoro-3-methylphenyl)-5-(2-(((1r,4r)-4-hydroxycyclohexyl)amino)-2-oxoacetyl)-1,2,4-triemthyl-1H-pyrrole-3-carboxamide] | 5 to 30 µM | < 0.05 µM |
| Cc1cc(NC(=O)c2c(C)c(C(=O)C(=O)N[C@H]3CCCN(S(C)(=O)=O)C3)n(C)c2C)ccc1F [Example 642, (S)-N-(4-fluoro-3-methylphenyl)-1,2,4-trimethyl-5-(2-((1-(methylsulfonyl)piperidin-3-yl)amino)-2-oxoacetyl)-1H-pyrrole-3-carboxamide] | 5 to 30 µM | < 0.05 µM |
| Cc1cc(NC(=O)c2c(C)c(C(=O)C(=O)N[C@H](C(N)=O)C(C)C)n(C)c2C)ccc1F [Example 107, (S)-5-(2-((1-amino-3-methyl-1-oxobutan-2-yl)amino)-2-oxoacetyl)-N-(4-fluoro-3-methylphenyl)-1,2,4-trimethyl-1H-pyrrole-3-carboxamide] | > 30 µM | < 0.05 µM |
| Cc1c(C(=O)Nc2ccc(F)c(Cl)c2)c2n(c1C(=O)C(=O)N[C@H]1C[C@H](O)C1)CCCC2 [Example 449, N-(3-chloro-4-fluorophenyl)-3-(2-(((1r,3r)-3-hydroxycyclobutyl)amino)-2-oxoacetyl)-2-methyl-5,6,7,8-tetrahydroindoliziine-1-carboxamide] | > 30 µM | 0.05 to 0.499 µM |
| Cc1cc(NC(=O)c2c(C)c(C(=O)C(=O)N[C@H]3CC[C@@](O)(C(F)(F)F)CC3)n(C)c2C)cnc1F [Example 205, N-(6-fluoro-5-methylpyridin-3-yl)-5-(2-(((1r,4r)-4-hydroxy-4-(trifluoromethyl)cyclohexyl)amino)-2-oxoacetyl)-1,2,4-trimethyl-1H-pyrrole-3-carboxamide] | > 30 µM | < 0.05 µM |
| Cc1cc(NC(=O)c2c(C)c(C(=O)C(=O)NC3(C)CCN(c4ncccn4)CC3)n(C)c2C)ccc1F [Example 691, N-(4-fluoro-3-methylphenyl)-1,2,4-trimethyl-5-(2-((4-methyl-1-(pyrimidin-2-yl)piperidin-4-yl)amino)-2-oxoacetyl)-1H-pyrrole-3-carboxamide] | > 30 µM | < 0.05 µM |
| Cc1cc(NC(=O)c2c(C)c(C(=O)C(=O)N[C@H](C(=O)O)C(C)C)n(C)c2C)ccc1F [Example 100, (2-(4-((4-fluoro-3-methylphenyl)carbamoyl)-1,3,5-trimethyl-1H-pyrrol-2-yl)-2-oxoacetyl)-L-valine] | 5 to 30 µM | > 1 µM |
| CC(C)(CO)CNC(=O)C(=O)c1c(Cl)c(C(=O)Nc2ccc(F)c(Cl)c2)c2n1CCC2 [Example 556, 6-chloro-N-(3-chloro-4-fluorophenyl)-5-(2-((3-hydroxy-2,2-dimethylpropyl)amino)-2-oxoacetyl)-2,3-dihydro-1H-pyrrolizine-7-carboxamide] | 5 to 30 µM | 0.05 to 0.499 µM |
| Cc1cc(NC(=O)c2c(C)c(C(=O)C(=O)N[C@H](C)C(F)(F)F)n(C)c2C)cnc1F [Example 165, (R)-N-(6-fluoro-5-methylpyridin-3-yl)-1,2,4-trimethyl-5-(2-oxo-2-((1,1,1-trifluoropropan-2-yl)amino)acetyl)-1H-pyrrole-3-carboxamide] | > 30 µM | < 0.05 µM |
| COC(=O)[C@H](NC(=O)C(=O)c1c(C)c(C(=O)Nc2ccc(F)c(C)c2)c(C)n1C)C1CCCCC1 [Example 56, methyl (R)-2-cyclohexyl-2-(2-(4-((4-fluoro-3-methylphenyl)carbamoyl)-1,3,5-trimethyl-1H-pyrrol-2-yl)-2-oxoacetamido)acetate] | 0.5 to 4.99 µM | < 0.05 µM |
| CNC(=O)[C@H](NC(=O)C(=O)c1c(C)c(C(=O)Nc2ccc(F)c(C)c2)c(C)n1C)C(C)(C)C [Example 60, (R)-5-(2-((3,3-dimethyl-1-(methylamino)-1-oxobutan-2-yl)amino)-2-oxoacetyl)-N-(4-fluoro-3-methylphenyl)-1,2,4-trimethyl-1H-pyrrole-3-carboxamide] | > 30 µM | < 0.05 µM |
| Cc1c(C(=O)Nc2ccc(F)c(Cl)c2)c(C)n(C)c1C(=O)C(=O)N[C@]1(C)CC[C@@H](O)CC1 [Example 333, N-(3-chloro-4-fluorophenyl)-5-(2-(((1r,4r)-4-hydroxy-1-methylcyclohexyl)amino)-2-oxoacetyl)-1,2,4-trimethyl-1H-pyrrole-3-carboxamide] | > 30 µM | < 0.05 µM |
| Cc1noc([C@H](NC(=O)C(=O)c2c(C)c(C(=O)Nc3ccc(F)c(C)c3)c(C)n2C)C(C)C)n1 [Example 144, (R)-N-(4-fluoro-3-methylphenyl)-1,2,4-trimethyl-5-(2-((2-methyl-1-(3-methyl-1,2,4-oxadiazol-5-yl)propyl)amino)-2-oxoacetyl)-1H-pyrrole-3-carboxamide] | > 30 µM | < 0.05 µM |
| Cc1cc(NC(=O)c2cc(C(=O)C(=O)NC[C@@H](O)CO)n3c2CCCC3)ccc1F [Example 415, (R)-3-(2-((2,3-dihydroxypropyl)amino)-2-oxoacetyl)-N-(4-fluoro-3-methylphenyl)-5,6,7,8-tetrahydroindolizine-1-carboxamide] | > 30 µM | > 1 µM |
| C#CCNC(=O)C(=O)c1c(C)c(C(=O)Nc2ccc(F)c(C)c2)c(C)n1C [Example 275, N-(4-fluoro-3-methylphenyl)-1,2,4-trimethyl-5-(2-oxo-2-(prop-2-yn-1-ylamino)acetyl)-1H-pyrrole-3-carboxamide] | > 30 µM | < 0.05 µM |
| Cc1noc([C@@H](NC(=O)C(=O)c2c(Cl)c(C(=O)Nc3ccc(F)c(C)c3)c3n2CCCC3)C(C)C)n1 [Example 493, (S)-2-chloro-N-(4-fluoro-3-methylphenyl)-3-(2-((2-methyl-1-(3-methyl-1,2,4-oxadiazol-5-yl)propyl)amino)-2-oxoacetyl)-5,6,7,8-tetrahydroindolizine-1-carboxamide] | 5 to 30 µM | < 0.05 µM |
| Cc1cc(NC(=O)c2c(C)c(C(=O)C(=O)NC3CCNC(=O)C3)n(C)c2C)ccc1F (stereo not drawn) [Example 286, N-(4-fluoro-3-methylphenyl)-1,2,4-trimethyl-5-(2-oxo-2-((2-oxopiperidin-4-yl)amino)acetyl)-1H-pyrrole-3-carboxamide] | > 30 µM | < 0.05 µM |
| Cc1cc(NC(=O)c2c(Cl)c(C(=O)C(=O)N[C@H](C)C(F)(F)F)n3c2CCCC3)cnc1F [Example 732] | > 30 µM | 0.05 to 0.499 µM |
| Cc1cc(NC(=O)c2c(C)c(C(=O)C(=O)NC3(C)CCN(c4ccncn4)CC3)n(C)c2C)ccc1F [Example 717] | 5 to 30 µM | < 0.05 µM |
| Cc1c(C(=O)Nc2cccc(C(F)F)c2)c(C)n(C)c1C(=O)C(=O)N[C@@H]1CCC[C@@H](O)C1 [Example 704, N-(3-(difluoromethyl)phenyl)-5-(2-(((1R,3R)-3-hydroxycyclohexyl)amino)-2-oxoacetyl)-1,2,4-trimethyl-1H-pyrrole-3-carboxamide] | > 30 µM | < 0.05 µM |
| Cc1cc(NC(=O)c2c(C)c(C(=O)C(=O)NCC(C)(C)CO)n3c2CCCC3)ccc1F [Example 443, N-(4-fluoro-3-methylphenyl)-3-(2-((3-hydroxy-2,2-dimethylpropyl)amino)-2-oxoacetyl)-2-methyl-5,6,7,8-tetreahydroindolizine-1-carboxamide] | 5 to 30 µM | < 0.05 µM |
| CC(=O)N1CCC(NC(=O)C(=O)c2c(C)c(C(=O)Nc3ccc(F)c(C)c3)c(C)n2C)CC1 [Example 354, 5-(2-((1-acetylpiperidin-4-yl)amino)-2-oxoacetyl)-N-(4-fluoro-3-methylphenyl)-1,2,4-trimethyl-1H-pyrrole-3-carboxamide] | > 30 µM | < 0.05 µM |
| Cc1cc(NC(=O)c2c(C)c(C(=O)C(=O)NC3CCN(c4cnccn4)CC3)n(C)c2C)ccc1F [Example 659, N-(4-fluoro-3-methylphenyl)-1,2,4-trimethyl-5-(2-oxo-2-((1-(pyrazin-2-yl)piperidin-4-yl)amino)acetyl)-1H-pyrrole-3-carboxamide] | > 30 µM | < 0.05 µM |

Source: patent US20190375708A1 (VenatoRx Pharmaceuticals, Inc., priority 2018, published 2019)
